Assay [1] has as its system Streptozotocin-induced diabetes rats. The experiment in a line: In vivo anti-hyperglycemia assay. Also noted: species or system rat. Particulars: streptozotocin-induced diabetic rats, single oral dose, blood glucose at 0-5 hr, various dosages. The procedure:
Streptozotocin-induced diabetes rats were used for assessment of blood glucose lowering effect. Adult male Sprague Dawley rats were obtained from BioLasco, Ilan, Taiwan. The rats received an intraperitoneal injection of streptozotocin (Sigma, Cat. No. S0130, St. Louis, Mo., USA) at a concentration of 65 mg/kg every other day. The streptozotocin solution was freshly prepared in 0.01 M citrate buffer. Blood samples were collected via tail vein with a 25 G needle once a week and were tested using a blood glucometer (ACCU-CHEK® from Roche, Basel, Schweiz) for glucose level. A glucose level of higher than 450 mg/dL indicates streptozotocin-induced diabetes. The diabetic rats were divided into 3-6 groups and were orally administered with a single dose of the tested compounds, dapagliflozin (reference compound), or vehicle. Blood samples were collected via tail vein at 0 (pre-dose), 0.5, 1, 2, 3, 4, and 5 hr after the oral administration and were measured for blood glucose levels with the glucometer. A P value of less than 0.05 was considered statistically significant.

For another assay, the system named is Male Sprague-Dawley rats. The experiment in a line: In vivo urine glucose excretion assay. The conditions noted are these: single oral dose 0.1, 1, 10, and 50 mg/kg, then 50% glucose solution 2 g/kg orally, 24-hour urine collection. Also noted: species or system rat. How it is done:
Male Sprague-Dawley rats were used for glucosuria assessment. Male Sprague-Dawley rats of 8-10 weeks old were obtained from BioLasco, Ilan, Taiwan. The rats to be tested were fasted overnight and divided into 6 weight-matched groups. The rats were mildly anesthetized with a mixed gas of 30% O2 and 70% CO2 by inhalation and were orally gavaged with a single dose of the tested compounds (0.1, 1, 10, and 50 mg/kg), dapagliflozin (reference compound, 1 mg/kg), or vehicle. Each of the tested rats was subsequently dosed orally with 50% glucose solution (2 g/kg). The rats were returned to metabolism cages (ISHIHALA, Tokyo, Japan) for 24-hour urine collection and were re-fed at 1 h after the glucose challenge. Volume of the urine was measured and recorded. The urine samples were measured for glucose levels by a DRI-CHEM 3500 analyzer (FUJI, Tokyo, Japan). A P value of less than 0.05 was considered statistically significant.

Each structure is given as a SMILES string.

In the case of `CCOc1ccc(Cc2cc([C@@H]3O[C@H](C=NNC(=S)NC)[C@@H](O)[C@H](O)[C@H]3O)ccc2Cl)cc1` [Compound 87], the “anti-hyperglycemia effect (blood glucose lowering)” value in assay [1] is recorded as “strong anti-hyperglycemia effect”. For the same compound, the “effect in increasing urinary glucose excretion” value with Male Sprague-Dawley rats was “strong effect in increasing urinary glucose excretion in a dose-dependent manner”.
With `O[C@@H]1[C@@H](O)[C@H](c2cn(Cc3ccc(C4CC4)cc3)c3c(F)cccc23)OC[C@H]1O` [Compound 108], in assay [1], the “anti-hyperglycemia effect (blood glucose lowering)” value is reported as “strong anti-hyperglycemia effect”.
`CCOc1ccc(Cc2cc([C@@H]3O[C@H](C=NNC(=O)c4cccs4)[C@@H](O)[C@H](O)[C@H]3O)ccc2Cl)cc1` [Compound 81]: the “effect in increasing urinary glucose excretion” value with Male Sprague-Dawley rats is “strong effect in increasing urinary glucose excretion in a dose-dependent manner”.
Take `CCOc1ccc(Cc2cc([C@@H]3O[C@H](C=NNC(=O)c4ccc(Cl)s4)[C@@H](O)[C@H](O)[C@H]3O)ccc2Cl)cc1` [Compound 95]: the “anti-hyperglycemia effect (blood glucose lowering)” value in assay [1] is on record as “strong anti-hyperglycemia effect”. Besides, the “effect in increasing urinary glucose excretion” value in the assay on Male Sprague-Dawley rats is recorded as “strong effect in increasing urinary glucose excretion in a dose-dependent manner”.
`CCOc1ccc(Cc2cc([C@@H]3O[C@H](CNOC)[C@@H](O)[C@H](O)[C@H]3O)ccc2Cl)cc1` [Compound 79]: the “effect in increasing urinary glucose excretion” value in the assay on Male Sprague-Dawley rats was “strong effect in increasing urinary glucose excretion in a dose-dependent manner”.
On to `CCOc1ccc(Cc2cc([C@@H]3O[C@H](C=NO)[C@@H](O)[C@H](O)[C@H]3O)ccc2Cl)cc1` [Compound 70], for which, in assay [1], the “anti-hyperglycemia effect (blood glucose lowering)” value is on record as “strong anti-hyperglycemia effect”. Further, the “effect in increasing urinary glucose excretion” value in the assay with Male Sprague-Dawley rats is recorded as “strong effect in increasing urinary glucose excretion in a dose-dependent manner”.
The matching figures for `CCOc1ccc(Cc2cc([C@@H]3O[C@H](C=NNCCO)[C@@H](O)[C@H](O)[C@H]3O)ccc2Cl)cc1` [Compound 78]: “strong anti-hyperglycemia effect” and “strong effect in increasing urinary glucose excretion in a dose-dependent manner”.
Turning to `CCOc1ccc(Cc2cc([C@@H]3O[C@H](C=NOC)[C@@H](O)[C@H](O)[C@H]3O)ccc2Cl)cc1` [Compound 71], the “effect in increasing urinary glucose excretion” value in the assay with Male Sprague-Dawley rats is listed as “strong effect in increasing urinary glucose excretion in a dose-dependent manner”.
As for `CCOc1ccc(Cc2cc([C@@H]3O[C@H](C=NNC(=O)c4ccccc4)[C@@H](O)[C@H](O)[C@H]3O)ccc2Cl)cc1` [Compound 93], the “anti-hyperglycemia effect (blood glucose lowering)” value in assay [1] is “strong anti-hyperglycemia effect”. Further, the “effect in increasing urinary glucose excretion” value in the assay on Male Sprague-Dawley rats was “strong effect in increasing urinary glucose excretion in a dose-dependent manner”.
